We go through 26 compounds from US9994547B2, “Heteroarylamide inhibitors of TBK1” (Takeda Pharmaceutical Company Limited, priority 2014, dated 2018).

The target in the first assay is Full length human TBK1 (Homo sapiens (Human), UniProt Q9UHD2). Briefly: Inhibition of TBK1 Enzyme (Example A). Format: biochemical. As to conditions: -log(IC50), IC50 molar; 3 nM TBK1, 25 μM ATP, 60 min RT. As to the method: Full length human TBK1 with an N-terminal His-tag was cloned into the pFastBacl vector and was transfected into Sf9 cells. 72 hours later the virus was harvested and amplified through two additional rounds of infections. Then 400 mL of the resulting virus stock was used to infect 10 L of Sf9 cells at a density of 2×10^6 cells/mL. Cell pellets were harvested 48 hours post infection and were lysed by freeze-thaw, homogenization and sonication in binding buffer (25 mM Tris pH7.6, 1 M NaCl, 10 mM imidazole, 0.5 mM TCEP) plus 0.1% Triton X-100 and complete protease inhibitor cocktail. The lysate was spun and the supernatant was purified with a HisTrap FF crude and a Superdex 200 pg column.
Sequence of Full length human TBK1 (Q9UHD2 whole entry): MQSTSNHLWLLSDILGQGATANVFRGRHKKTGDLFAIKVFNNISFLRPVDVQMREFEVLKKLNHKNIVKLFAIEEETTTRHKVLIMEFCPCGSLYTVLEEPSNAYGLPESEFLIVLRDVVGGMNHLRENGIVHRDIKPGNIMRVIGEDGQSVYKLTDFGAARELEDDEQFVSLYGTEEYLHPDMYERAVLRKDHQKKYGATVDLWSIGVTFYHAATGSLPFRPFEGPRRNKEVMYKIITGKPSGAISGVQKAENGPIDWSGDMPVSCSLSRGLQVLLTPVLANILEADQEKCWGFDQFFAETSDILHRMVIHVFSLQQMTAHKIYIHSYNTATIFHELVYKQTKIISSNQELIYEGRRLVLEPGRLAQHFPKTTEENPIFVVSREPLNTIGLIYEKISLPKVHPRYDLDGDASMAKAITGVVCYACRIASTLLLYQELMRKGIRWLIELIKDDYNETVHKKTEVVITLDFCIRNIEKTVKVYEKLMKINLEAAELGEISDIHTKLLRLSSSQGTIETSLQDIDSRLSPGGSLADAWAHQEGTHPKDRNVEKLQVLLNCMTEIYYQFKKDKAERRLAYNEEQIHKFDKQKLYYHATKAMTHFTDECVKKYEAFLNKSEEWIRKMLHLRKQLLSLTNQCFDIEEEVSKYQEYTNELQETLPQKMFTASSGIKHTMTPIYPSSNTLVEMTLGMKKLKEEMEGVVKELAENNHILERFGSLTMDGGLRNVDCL
TBK1 inhibition is determined using a 384 well plate format in buffer containing 20 mM Hepes, pH 7.4, 10 mM MgCl2, 1 mM EDTA, 0.01% Brij-L23, 1 mM DTT. Each test compound is prepared in DMSO using 2.5-fold serial dilutions for 11 data points, which are added to the buffer so that each dilution contains 1% DMSO. To each well is added 2 μL of 1 μM 5FAM-DRHDSGLDSMKDE-NH2 (in buffer), 2 μL of diluted test compound (1% DMSO in buffer), and 5 μL of 3 nM TBK1 and 25 μM ATP (in buffer). The reaction mixture is incubated at RT for 60 min, and quenched by adding 20 mM Hepes, pH 7.4, 10 mM MgCl2, 1 mM EDTA, 0.01% Brij-L23, 1 mM DTT+25 mM EDTA. To quantify the fluorescent-labeled substrate and product following reaction, the test plate is loaded on a Caliper LC-3000, which measures percent of conversion by microfluidic-based separation. Corresponding IC50 values are calculated by non-linear curve fitting of the compound concentrations and percent of inhibition to the standard IC50 equation and reported as pIC50, i.e., −log(IC50), where IC50 is the molar concentration.
With `N#Cc1ccc(-c2cnc(NC(=O)C3CC3)cn2)cc1NCC(=O)N1CC(F)(F)C1` [Example 24, N-(5-(4-cyano-3-((2-(3,3-difluoroazetidin-1-yl)-2-oxoethyl)amino)phenyl)pyrazin-2-yl)cyclopropanecarboxamide], the “TBK1 Inhibition (pIC50)” value is 6.8.
The same measure, in the same setting: next, `N#Cc1ncc(-c2cnc(NC(=O)C3CC3)cn2)cc1NCC(=O)N1CCC(C#N)C1` (centres unmarked) [Example 102, N-(5-(6-cyano-5-((2-(3-cyanopyrrolidin-1-yl)-2-oxoethyl)amino)pyridin-3-yl)pyrazin-2-yl)cyclopropanecarboxamide]: 6.6; `CN(C)C(=O)[C@H](CO)Nc1cc(-c2cnc(NC(=O)C3CC3)cn2)ccc1C#N` [Example 136, (S)-N-(5-(4-cyano-3-((1-(dimethylamino)-3-hydroxy-1-oxopropan-2-yl)amino)phenyl)pyrazin-2-yl)cyclopropanecarboxamide]: 7.6; `CN(CC#N)C(=O)CNc1cc(-c2cnc(NC(=O)C3CC3)cn2)cnc1C#N` [Example 49, N-(5-(6-cyano-5-((2-((cyanomethyl)(methyl)amino)-2-oxoethyl)amino)pyridin-3-yl)pyrazin-2-yl)cyclopropanecarboxamide]: 7.2.
Still for that read-out and setting: next, `N#Cc1ncc(-c2cnc(NC(=O)C3CC3)cn2)cc1NCC(=O)N1CCS(=O)(=O)C1` [Example 140, N-(5-(6-cyano-5-((2-(1,1-dioxidothiazolidin-3-yl)-2-oxoethyl)amino)pyridin-3-yl)pyrazin-2-yl)cyclopropanecarboxamide]: 7.0; `CC(O)CN(CC(F)(F)F)C(=O)CNc1cc(-c2cnc(NC(=O)C3CC3)cn2)cnc1C#N` (centres unmarked) [Example 110, N-(5-(6-cyano-5-((2-((2-hydroxypropyl)(2,2,2-trifluoroethyl)amino)-2-oxoethyl)amino)pyridin-3-yl)pyrazin-2-yl)cyclopropanecarboxamide]: 7.5.
Consider `C[C@H](Nc1cc(-c2cnc(NC(=O)C3CC3)cn2)cnc1C#N)C(=O)N(C)[C@@H](C)C#N` [Example 89, N-(5-(6-cyano-5-(((S)-1-(((S)-1-cyanoethyl)(methyl)amino)-1-oxopropan-2-yl)amino)pyridin-3-yl)pyrazin-2-yl)cyclopropanecarboxamide], for which the “TBK1 Inhibition (pIC50)” value worked out at 7.9.
In the case of `N#Cc1ncc(-c2cnc(NC(=O)C3CC3)cn2)cc1NCC(=O)N1CCC[C@@H]1C(F)F` [Example 141, (R)-N-(5-(6-cyano-5-((2-(2-(difluoromethyl)pyrrolidin-1-yl)-2-oxoethyl)amino)pyridin-3-yl)pyrazin-2-yl)cyclopropanecarboxamide], the “TBK1 Inhibition (pIC50)” value is given as 8.3.
Same read-out and setting: for `C[C@H](Nc1cc(-c2cnc(NC(=O)C3CC3)cn2)cnc1C#N)C(=O)N1CCOC[C@@H]1C` [Example 91, N-(5-(6-cyano-5-(((S)-1-((S)-3-methylmorpholino)-1-oxopropan-2-yl)amino)pyridin-3-yl)pyrazin-2-yl)cyclopropanecarboxamide] the value was 7.7.
`C[C@@H](Nc1cc(-c2cnc(NC(=O)C3CC3)cn2)cnc1C#N)C(=O)N(C)CC(F)F` [Example 83, (R)-N-(5-(6-cyano-5-((1-((2,2-difluoroethyl)(methyl)amino)-1-oxopropan-2-yl)amino)pyridin-3-yl)pyrazin-2-yl)cyclopropanecarboxamide]: the “TBK1 Inhibition (pIC50)” value was determined as 7.0.
Same read-out and setting: next, `CC[C@H](Nc1cc(-c2cnc(NC(=O)C3CC3)cn2)ccc1C#N)C(=O)N(C)C` [Example 23, (S)-N-(5-(4-cyano-3-((1-(dimethylamino)-1-oxobutan-2-yl)amino)phenyl)pyrazin-2-yl)cyclopropanecarboxamide]: 7.7.
On to `C[C@H](Nc1cc(-c2cnc(NC(=O)C3CC3)cn2)cnc1C#N)C(=O)NCC(C)(F)F` [Example 117, (S)-N-(5-(6-cyano-5-((1-((2,2-difluoropropyl)amino)-1-oxopropan-2-yl)amino)pyridin-3-yl)pyrazin-2-yl)cyclopropanecarboxamide], for which the “TBK1 Inhibition (pIC50)” value is given as 7.0.
The same measure, in the same setting: for `CC(CO)N(C)C(=O)CNc1cc(-c2cnc(NC(=O)C3CC3)cn2)ccc1C#N` (centres unmarked) [Example 133, N-(5-(4-cyano-3-((2-((1-hydroxypropan-2-yl)(methyl)amino)-2-oxoethyl)amino)phenyl)pyrazin-2-yl)cyclopropanecarboxamide] the value was 7.3; for `CC(C)NC(=O)[C@H](C)Nc1cc(-c2cnc(NC(=O)C3CC3)cn2)ccc1C#N` [Example 14, (S)-N-(5-(4-cyano-3-((1-(isopropylamino)-1-oxopropan-2-yl)amino)phenyl)pyrazin-2-yl)cyclopropanecarboxamide], 6.9.
Still for that read-out and setting: for `COCC[C@H](Nc1cc(-c2cnc(NC(=O)C3CC3)cn2)cnc1C#N)C(=O)N(C)C` [Example 131, (S)-N-(5-(6-cyano-5-((1-(dimethylamino)-4-methoxy-1-oxobutan-2-yl)amino)pyridin-3-yl)pyrazin-2-yl)cyclopropanecarboxamide] the value was 7.1.
Same read-out and setting: for `CC[C@H](Nc1cc(-c2cnc(NC(=O)C3CC3)cn2)cnc1C#N)C(=O)N(C)CC#N` [Example 51, (S)-N-(5-(6-cyano-5-((1-((cyanomethyl)(methyl)amino)-1-oxobutan-2-yl)amino)pyridin-3-yl)pyrazin-2-yl)cyclopropanecarboxamide] the value was 7.4.
On to `C[C@H](Nc1cc(-c2cnc(NC(=O)C3CC3)cn2)cnc1C#N)C(=O)N(C)CCN(C)C` [Example 67, (S)-N-(5-(6-cyano-5-((1-((2-(dimethylamino)ethyl)(methyl)amino)-1-oxopropan-2-yl)amino)pyridin-3-yl)pyrazin-2-yl)cyclopropanecarboxamide], for which the “TBK1 Inhibition (pIC50)” value is given as 6.3.
With `C[C@@H](O)[C@H](Nc1cc(-c2cnc(NC(=O)C3CC3)cn2)cnc1C#N)C(=O)N(C)C` [Example 32, N-(5-(6-cyano-5-(((2S,3R)-1-(dimethylamino)-3-hydroxy-1-oxobutan-2-yl)amino)pyridin-3-yl)pyrazin-2-yl)cyclopropanecarboxamide], the “TBK1 Inhibition (pIC50)” value was 6.8.
For the compound `C[C@H](Nc1cc(-c2cnc(NC(=O)C3CC3)cn2)cnc1C#N)C(=O)NCC(F)(F)F` [Example 116, (S)-N-(5-(6-cyano-5-((1-oxo-1-((2,2,2-trifluoroethyl)amino)propan-2-yl)amino)pyridin-3-yl)pyrazin-2-yl)cyclopropanecarboxamide], the “TBK1 Inhibition (pIC50)” value amounted to 7.3.
For the compound `N#Cc1ccc(-c2cnc(NC(=O)C3CC3)cn2)cc1NCC(=O)N1CCCC1` [Example 125, N-(5-(4-cyano-3-((2-oxo-2-(pyrrolidin-1-yl)ethyl)amino)phenyl)pyrazin-2-yl)cyclopropanecarboxamide], the “TBK1 Inhibition (pIC50)” value came to 7.3.
The same measure, in the same setting: next, `CC[C@H](Nc1cc(-c2cnc(NC(=O)C3CC3)cn2)cnc1C#N)C(=O)NCC(F)F` [Example 120, (S)-N-(5-(6-cyano-5-((1-((2,2-difluoroethyl)amino)-1-oxobutan-2-yl)amino)pyridin-3-yl)pyrazin-2-yl)cyclopropanecarboxamide]: 7.2.
Same read-out and setting: next, `CN1CCN(C(=O)CNc2cc(-c3cnc(NC(=O)C4CC4)cn3)cnc2C#N)CC1` [Example 97, N-(5-(6-cyano-5-((2-(4-methylpiperazin-1-yl)-2-oxoethyl)amino)pyridin-3-yl)pyrazin-2-yl)cyclopropanecarboxamide]: 5.5.
Same read-out and setting: for `CN(CC(F)(F)F)C(=O)CNc1cc(-c2cnc(NC(=O)C3CC3)cn2)ccc1C#N` [Example 126, N-(5-(4-cyano-3-((2-(methyl(2,2,2-trifluoroethyl)amino)-2-oxoethyl)amino)phenyl)pyrazin-2-yl)cyclopropanecarboxamide] the value was 7.6; for `C[C@H](Nc1cc(-c2cnc(NC(=O)C3CC3)cn2)cnc1C#N)C(=O)NC1CC1(F)F` (stereo partly drawn) [Example 118, N-(5-(6-cyano-5-(((2S)-1-((2,2-difluorocyclopropyl)amino)-1-oxopropan-2-yl)amino)pyridin-3-yl)pyrazin-2-yl)cyclopropanecarboxamide], 6.8.
`CC(Nc1cc(-c2cnc(NC(=O)C3CC3)cn2)cnc1C#N)C(=O)N(C)CC(F)(F)F` (centres unmarked) [Example 41, N-(5-(6-cyano-5-((1-(methyl(2,2,2-trifluoroethyl)amino)-1-oxopropan-2-yl)amino)pyridin-3-yl)pyrazin-2-yl)cyclopropanecarboxamide]: the “TBK1 Inhibition (pIC50)” value is reported as 7.8.

The same assay, now with this note: -log(IC50), IC50 molar; 3 nM TBK1, 25 μM ATP, 60 min RT; read-out: TBK1 Inhibition (pIC50) (converted).
On to `N#Cc1ncc(-c2cnc(NC(=O)C3CC3)cn2)cc1NCC(=O)N1CCO[C@H]1C(F)(F)F` [Example 96, (S)-N-(5-(6-cyano-5-((2-oxo-2-(2-(trifluoromethyl)oxazolidin-3-yl)ethyl)amino)pyridin-3-yl)pyrazin-2-yl)cyclopropanecarboxamide], for which the IC50 was 15.8 nM.
